From article PMC8156151 (The European Respiratory Journal, 2021)

Columns and labels:
Assay type in all cases: in vivo, human
Gal-1 = assay: Plasma biomarker Gal-1; settings: for Galectin-1 raw data, Mean (SD) / Gal-1 least square means % baseline±SEM: IPF patients
Experimental: (§1) All patients, investigators, sites and study sponsor personnel were blinded to the study group assignments throughout the study. Patients underwent study-specific assessments on days 2, 3, 7, 14 and 15, and a post-study assessment was carried out 26–30 days after the last day of the study period. Assessments included vital signs (supine blood pressure, pulse, oxygen saturation, oral temperature and respiratory rate), spirometry, 12-lead ECG, physical examination, laboratory safety screen (haematology, biochemistry, urinalysis and urinary drugs of abuse screen) and blood sampling for PK measurements. All adverse events and concomitant medications were recorded from the time of the screening visit until the post-study follow-up visit. BAL was performed at day −1 (24 h before the first dose) and at day 14 (2 h after the last dose). The BAL procedure was performed as per international guidelines. Briefly, 240 mL of 0.9% saline at room temperature was instilled in 40 mL aliquots into the right middle lobe and aspirated by suction after each aliquot.
(§2) BAL cells were separated from fluid by centrifugation, and cells were collected, stained with antibodies (supplementary material) and then fixed before analysis using a LSR Fortessa flow cytometer (Becton Dickinson, Franklin Lakes, NJ, USA). Data were analysed using FlowJo software (Tree Star, Ashland, OR, USA). Macrophages were identified as having high side scatter properties and human leukocyte antigen-DR positivity. Gal-3 expression (mean fluorescence intensity) was determined from the macrophage gate (supplementary figures S1 and S2). […] Samples were analysed by magnetic Luminex assay (R&D Systems, Minneapolis, MN, USA) or ELISA.
(§3) For part 2 of the study, placebos were combined from the three dose-specific cohorts into a pooled control group (n=9). For alveolar macrophage Gal-3 expression and the plasma biomarkers, ANCOVA was performed for percentage of baseline ((day 14/day 1)×100). The ANCOVA model included effects for treatment group and baseline (day 1) value. […] An additional analysis including dose as a continuous covariate was also performed. The Pearson correlation coefficient (r) and associated p-value were calculated for percentage of baseline and day 14 values between plasma biomarkers and alveolar macrophage Gal-3 expression. […] The analysis is exploratory and there was no pre-planned adjustment for multiple testing; the study was not powered for this. Alveolar macrophage Gal-3 expression was considered the primary exploratory analysis with the pre-selected biomarkers secondary. A Bonferroni correction for multiple testing of the secondary end-points comparing the 10 mg group with placebo gives a critical value of 0.0063. Data are presented as the difference in least square means with 95% confidence interval and p-value unless otherwise stated. All analyses were performed using SAS version 9.4 (SAS Institute, Cary, NC, USA). […]

MMP-8 = assay: Plasma biomarker MMP-8; settings: for MMP-8 raw data, Mean (SD) / MMP-8 least square means % baseline±SEM: IPF patients
Experimental: as §1, §2, §3

[1] = TD139 concentration in BAL alveolar macrophages, ELF and plasma
Experimental: Full plasma PK profiles were conducted on days 1 (first day of dosing) and 14 (last day of dosing). […] Standard noncompartmental methods were applied to derive PK parameters using Phoenix WinNonlin version 6.3 (Certara, Sheffield, UK). […] Drug compartment measurements in BAL alveolar macrophages and fluid were determined as described previously.

healthy subjects = assay: Safety and tolerability (TEAEs), part 1, single inhaled dose
Experimental: Subjects were discharged 24 h post-dose (day 2) provided there were no safety concerns, and returned for three outpatient visits on days 3, 8 and 14 post-dose, with a post-study follow-up between days 26 and 30. Safety and PK assessments were made at predetermined time-points.
Following completion of dosing for the final subject in each dosing cohort, an interim dose review meeting was held with a safety committee consisting of the principal investigator, medical monitor, pharmacokineticist and statistician to review the safety, tolerability and PK data (study design schematic shown in figure 1). The study statistician and pharmacokineticist were unblinded at the end of each cohort in order to conduct the analyses required for dose review decisions. The primary end-point was the safety and tolerability of single or multiple doses of TD139 in healthy subjects or IPF patients, respectively.

[2] = healthy subjects, single inhaled 0.15 mg
[3] = healthy subjects, single inhaled 1.5 mg
[4] = healthy subjects, single inhaled 3 mg
[5] = healthy subjects, single inhaled 10 mg
[6] = healthy subjects, single inhaled 20 mg
[7] = healthy subjects, single inhaled 50 mg

Q: What does the source list for `OC[C@H]1O[C@@H](S[C@@H]2O[C@H](CO)[C@H](O)[C@H](n3cc(-c4cccc(F)c4)nn3)[C@H]2O)[C@H](O)[C@@H](n2cc(-c3cccc(F)c3)nn2)[C@H]1O` [TD139]?
A: Gal-1 difference in least square means % baseline (95% CI) (Gal-1; 10 mg vs placebo, ANCOVA): −16.6 (−60.0–26.7) % baseline; Galectin-1 raw data, Mean (SD) (Gal-1; Day 14, 0.3 mg): 41996.4 (7357.87) pg/ml; Galectin-1 raw data, Mean (SD) (Gal-1; Day 14, 3 mg): 60416.7 (17348.65) pg/ml; Galectin-1 raw data, Mean (SD) (Gal-1; Day 14, 10 mg): 48409.7 (21339.06) pg/ml; Gal-1 least square means % baseline±SEM (Gal-1; day 14, 0.3 mg once daily): 93.1±16.7 % baseline; Gal-1 least square means % baseline±SEM (Gal-1; day 14, 3 mg once daily): 120.2±16.6 % baseline; Gal-1 least square means % baseline±SEM (Gal-1; day 14, 10 mg once daily): 89.7±16.6 % baseline; MMP-8 difference in least square means % baseline (95% CI) (MMP-8; 10 mg vs placebo, ANCOVA): −125.4 (−271.3–20.5) % baseline; MMP-8 raw data, Mean (SD) (MMP-8; Day 14, 0.3 mg): 1911.5 (1577.82) pg/ml; MMP-8 raw data, Mean (SD) (MMP-8; Day 14, 3 mg): 2263.3 (2428.78) pg/ml; MMP-8 raw data, Mean (SD) (MMP-8; Day 14, 10 mg): 44436.7 (97465.67) pg/ml; MMP-8 least square means % baseline±SEM (MMP-8; day 14, 0.3 mg once daily): 138.0±52.8 % baseline; MMP-8 least square means % baseline±SEM (MMP-8; day 14, 3 mg once daily): 115.2±52.7 % baseline; MMP-8 least square means % baseline±SEM (MMP-8; day 14, 10 mg once daily): 51.5±56.1 % baseline; correlation between concentrations of TD139 in ELF and AMs (r) ([1]; all active cohorts, day 14): 0.89 (95% CI 0.70–0.96); correlation between concentrations of TD139 in plasma (total) and AMs (r) ([1]; all active cohorts, day 14): 0.89 (95% CI 0.65–0.96); Kp at 2 h ([1]; human, inhaled, concentration of TD139 in BAL macrophages (lung) relative to systemic exposure (blood), IPF patients, 2 h post-dosing on day 14): > 567; safety and tolerability (healthy subjects; healthy subjects, single doses up to 50 mg): safe and well tolerated; Subjects reporting ≥1 TEAE: Serious TEAE (healthy subjects; [2]): 0 n (%); Subjects reporting ≥1 TEAE: TEAE (healthy subjects; [2]): 0 n (%); Subjects reporting ≥1 TEAE: TEAE leading to withdrawal (healthy subjects; [2]): 0 n (%); Subjects with TEAE by relationship to study IMP: Almost definite (healthy subjects; [2]): 0 n (%); Subjects with TEAE by relationship to study IMP: Possible (healthy subjects; [2]): 0 n (%); Subjects with TEAE by relationship to study IMP: Probable (healthy subjects; [2]): 0 n (%); Subjects with TEAE by relationship to study IMP: Unlikely (healthy subjects; [2]): 0 n (%); Subjects with TEAE by severity: Mild (healthy subjects; [2]): 0 n (%); TEAEs (healthy subjects; [2]): 0 n; Subjects reporting ≥1 TEAE: Serious TEAE (healthy subjects; [3]): 0 n (%); Subjects reporting ≥1 TEAE: TEAE (healthy subjects; [3]): 0 n (%); Subjects reporting ≥1 TEAE: TEAE leading to withdrawal (healthy subjects; [3]): 0 n (%); Subjects with TEAE by relationship to study IMP: Almost definite (healthy subjects; [3]): 0 n (%); Subjects with TEAE by relationship to study IMP: Possible (healthy subjects; [3]): 0 n (%); Subjects with TEAE by relationship to study IMP: Probable (healthy subjects; [3]): 0 n (%); Subjects with TEAE by relationship to study IMP: Unlikely (healthy subjects; [3]): 0 n (%); Subjects with TEAE by severity: Mild (healthy subjects; [3]): 0 n (%); TEAEs (healthy subjects; [3]): 0 n; Subjects reporting ≥1 TEAE: Serious TEAE (healthy subjects; [4]): 0 n (%); Subjects reporting ≥1 TEAE: TEAE (healthy subjects; [4]): 2 (50.0) n (%); Subjects reporting ≥1 TEAE: TEAE leading to withdrawal (healthy subjects; [4]): 0 n (%); Subjects with TEAE by relationship to study IMP: Almost definite (healthy subjects; [4]): 1 (25.0) n (%); Subjects with TEAE by relationship to study IMP: Possible (healthy subjects; [4]): 0 n (%); Subjects with TEAE by relationship to study IMP: Probable (healthy subjects; [4]): 0 n (%); Subjects with TEAE by relationship to study IMP: Unlikely (healthy subjects; [4]): 1 (25.0) n (%); Subjects with TEAE by severity: Mild (healthy subjects; [4]): 2 (50.0) n (%); TEAEs (healthy subjects; [4]): 2 n; Subjects reporting ≥1 TEAE: Serious TEAE (healthy subjects; [5]): 0 n (%); Subjects reporting ≥1 TEAE: TEAE (healthy subjects; [5]): 3 (75.0) n (%); Subjects reporting ≥1 TEAE: TEAE leading to withdrawal (healthy subjects; [5]): 0 n (%); Subjects with TEAE by relationship to study IMP: Almost definite (healthy subjects; [5]): 3 (75.0) n (%); Subjects with TEAE by relationship to study IMP: Possible (healthy subjects; [5]): 2 (50.0) n (%); Subjects with TEAE by relationship to study IMP: Probable (healthy subjects; [5]): 0 n (%); Subjects with TEAE by relationship to study IMP: Unlikely (healthy subjects; [5]): 0 n (%); Subjects with TEAE by severity: Mild (healthy subjects; [5]): 3 (75.0) n (%); TEAEs (healthy subjects; [5]): 7 n; Subjects reporting ≥1 TEAE: Serious TEAE (healthy subjects; [6]): 0 n (%); Subjects reporting ≥1 TEAE: TEAE (healthy subjects; [6]): 4 (100.0) n (%); Subjects reporting ≥1 TEAE: TEAE leading to withdrawal (healthy subjects; [6]): 0 n (%); Subjects with TEAE by relationship to study IMP: Almost definite (healthy subjects; [6]): 4 (100.0) n (%); Subjects with TEAE by relationship to study IMP: Possible (healthy subjects; [6]): 1 (25.0) n (%); Subjects with TEAE by relationship to study IMP: Probable (healthy subjects; [6]): 1 (25.0) n (%); Subjects with TEAE by relationship to study IMP: Unlikely (healthy subjects; [6]): 0 n (%); Subjects with TEAE by severity: Mild (healthy subjects; [6]): 4 (100.0) n (%); TEAEs (healthy subjects; [6]): 7 n; Subjects reporting ≥1 TEAE: Serious TEAE (healthy subjects; [7]): 0 n (%); Subjects reporting ≥1 TEAE: TEAE (healthy subjects; [7]): 4 (100.0) n (%); Subjects reporting ≥1 TEAE: TEAE leading to withdrawal (healthy subjects; [7]): 0 n (%); Subjects with TEAE by relationship to study IMP: Almost definite (healthy subjects; [7]): 4 (100.0) n (%); Subjects with TEAE by relationship to study IMP: Possible (healthy subjects; [7]): 3 (75.0) n (%); Subjects with TEAE by relationship to study IMP: Probable (healthy subjects; [7]): 0 n (%); Subjects with TEAE by relationship to study IMP: Unlikely (healthy subjects; [7]): 0 n (%); Subjects with TEAE by severity: Mild (healthy subjects; [7]): 4 (100.0) n (%); TEAEs (healthy subjects; [7]): 10 n; biochemistry, haematology, vital signs or 12-lead ECG data (healthy subjects; part 1, healthy subjects): no clinically significant safety findings or treatment- or dose-related changes observed; incidence of cough (healthy subjects; part 1, healthy subjects): 11.1%; incidence of mild dysgeusia (most commonly occurring TEAE) (healthy subjects; part 1, healthy subjects): 36.1%
